The results in this text go back to ChEMBL document CHEMBL4406843, “β-Amino acid derivatives as mitochondrial complex III inhibitors of L. donovani: A promising chemotype targeting visceral leishmaniasis” (Eur J Med Chem, 2019).

Broadly, the inhibition is the relative decrease from the control value, in per cent.

The nature of data set [1]: Cytotoxicity against African green monkey Vero cells assessed as cell viability at 25 uM by MTT assay relative to control. Format: cell-based. As to conditions: chlorocebus sabaeus, read-out: Activity. For orientation: Tetrazolium assays rely on reduction of a dye to a coloured formazan, in cell work by metabolically active cells.
For data set [2], the system named is Leishmania donovani. Briefly: Antileishmanial activity against promastigote stage of Leishmania donovani MHOM/IN/80/Dd8 harboring luciferase reporter gene at 25 uM after 48 hrs by Steady-Glo luminescence assay relative to control. As to conditions: for inhibition at 25 µM: MHOM/IN/80/Dd8, 48 h. Format: functional. For orientation: Reporter assays use an easily measured gene product as a stand-in for the process of interest.

In data set [3] the test system is Leishmania donovani. Briefly: Antileishmanial activity against promastigote stage of Leishmania donovani MHOM/IN/80/Dd8 harboring luciferase reporter gene at 100 uM after 48 hrs by Steady-Glo luminescence assay relative to control. The class given is functional. As to conditions: MHOM/IN/80/Dd8, 48 h.
Data set [4] deals with Leishmania donovani. Briefly: Antileishmanial activity against Leishmania donovani MHOM/IN/80/Dd8 amastigotes harboring luciferase reporter gene infected in mouse J774 cells at 50 uM after 72 hrs by Steady-Glo luminescence assay relative to control. The class given is functional. The settings on record: MHOM/IN/80/Dd8, J774, 72 h.
Data set [5] is described as follows: Cytotoxicity against African green monkey Vero cells assessed as cell viability at 50 uM by MTT assay relative to control. The class given is cell-based. As to conditions: chlorocebus sabaeus, read-out: Activity.
Data set [6] has as its system Leishmania donovani. Nature of the data set: Antileishmanial activity against promastigote stage of Leishmania donovani MHOM/IN/80/Dd8 harboring luciferase reporter gene at 50 uM after 48 hrs by Steady-Glo luminescence assay relative to control. Format: functional. The settings on record: for inhibition at 50 µM: MHOM/IN/80/Dd8, 48 h.
Data set [7] in a line: Cytotoxicity against African green monkey Vero cells assessed as cell viability at 100 uM by MTT assay relative to control. Format: cell-based. The settings on record: chlorocebus sabaeus, read-out: Activity.
Data set [8] concerns Leishmania donovani. Nature of the data set: Antileishmanial activity against Leishmania donovani MHOM/IN/80/Dd8 amastigotes harboring luciferase reporter gene infected in mouse J774 cells at 25 uM after 72 hrs by Steady-Glo luminescence assay relative to control. The class given is functional. As to conditions: for inhibition at 25 µM: MHOM/IN/80/Dd8, J774, 72 h.
The test system of data set [9] is Leishmania donovani. Nature of the data set: Antileishmanial activity against Leishmania donovani MHOM/IN/80/Dd8 amastigotes harboring luciferase reporter gene infected in mouse J774 cells at 100 uM after 72 hrs by Steady-Glo luminescence assay relative to control. The settings on record: MHOM/IN/80/Dd8, J774, 72 h. The class given is functional.

Active and inactive are the calls of the source. The rule behind the calls is not given here.

For the compound `CSc1ccc(C(=O)C(c2ccc(Cl)c(Cl)c2)C(NC(=O)c2ccc(C)cc2)c2cccc3ccccc23)cc1` (configuration not stated), the viability at 25 µM in data set [1] came out at 90.5%. In addition, the inhibition result in data set [2] and in data set [6] was “inactive” in each case. Also, the figures for the inhibition at 100 µM in data set [3] and in data set [9] were 12.5% and 25.9%, respectively. The compound further returned an inhibition at 50 µM in data set [4] of 23.8%. Moreover, in [5], the viability at 50 µM was determined as 89.6%. Besides, the viability at 100 µM in data set [7] was found to be 88.6%. The inhibition at 25 µM in data set [8] came out at 14.3%.
With `CCOC(=O)C(C(=O)c1ccc(OC)cc1)C(NC(C)=O)c1ccc(C(C)(C)C)cc1` (configuration not stated), the viability at 25 µM in data set [1] came out at 94.5%. In addition, the inhibition at 25 µM in [2] was 40.2%; in [8] it was 40.5%. For the same compound, the inhibition at 100 µM in data set [3] worked out at 54.3%; in data set [9] it was 53.1%. Further, the inhibition at 50 µM in data set [4] was 46.1%; in data set [6], 52.4%. In addition, the viability at 50 µM in [5] was determined as 92.3%. In addition, the viability at 100 µM in [7] was determined as 89.5%.
Take `CSc1ccc(C(=O)C(c2ccc(Cl)c(Cl)c2)C(NC(=O)c2cccc(C)c2)c2cccc3ccccc23)cc1` (configuration not stated): the viability at 25 µM in [1] was 95.8%. Further, the values for the inhibition at 25 µM in data set [2] and in data set [8] were 27.2% and 5.9%, respectively. Further, the figures for the inhibition at 100 µM in data set [3] and in data set [9] were 36.9% and 19.3%, respectively. In addition, the inhibition at 50 µM was 14.5% in data set [4] and 36.4% in [6]. For the same compound, in data set [5], the viability at 50 µM was found to be 90.7%. The viability at 100 µM in data set [7] worked out at 87.6%.
For `CSc1ccc(C(=O)C(c2ccc(Cl)c(Cl)c2)C(NC(=O)c2ccccc2)c2cc3ccccc3s2)cc1` (configuration not stated), in data set [1], the viability at 25 µM worked out at 97.2%. The inhibition at 25 µM in data set [2] is 22.4%; in data set [8], 11.8%. Further, the inhibition at 100 µM came to 33.2% in data set [3] and 18.3% in data set [9]. Also, the inhibition at 50 µM amounted to 16.5% in data set [4] and 30.5% in data set [6]. In addition, in data set [5], the viability at 50 µM was determined as 92.4%. In addition, in data set [7], the viability at 100 µM was found to be 88%.
Consider `CSc1ccc(C(=O)C(c2ccc(Cl)c(Cl)c2)C(NC(=O)c2ccc(C)cc2)c2cc3ccccc3s2)cc1` (configuration not stated), for which the viability at 25 µM in [1] worked out at 95.3%. The inhibition at 25 µM in data set [2] was 20.1%; in data set [8], 9.2%. Moreover, the inhibition at 100 µM in [3] was 24.2%; in [9], 21%. In addition, the inhibition at 50 µM in [4] is 17.6%; in [6], 22.4%. The viability at 50 µM in data set [5] is 92.3%. The viability at 100 µM in [7] was 90.2%.
In the case of `CSc1ccc(C(=O)/C(=C/c2cc3ccccc3s2)c2ccc(Cl)c(Cl)c2)cc1`, in data set [1], the viability at 25 µM was 93.4%. The same compound returned an inhibition at 25 µM in data set [2] of 62.1%. Further, the inhibition at 100 µM was 72.1% in [3] and 2.8% in data set [9]. Moreover, the figures for the inhibition at 50 µM in [4] and in data set [6] were 2.6% and 70.3%, respectively. Besides, the viability at 50 µM in data set [5] was 91.6%. The viability at 100 µM in data set [7] came out at 87%. The inhibition entry in data set [8] was “inactive”.
For the compound `CCOC(=O)C(C(=O)c1ccc(OC)cc1)C(NC(C)=O)c1cc(OC)c(OC)c(OC)c1` (configuration not stated), the viability at 25 µM in [1] is 97.8%. For the same compound, the values for the inhibition at 25 µM in data set [2] and in data set [8] were 28.3% and 25.4%, respectively. Further, the inhibition at 100 µM came to 43.1% in [3] and 51.3% in data set [9]. Also, the inhibition at 50 µM turned out to be 51.1% in [4] and 40.2% in data set [6]. The viability at 50 µM in data set [5] was 94.3%. The viability at 100 µM in data set [7] was found to be 88.9%.
For the compound `CSc1ccc(C(=O)C(c2ccc(Cl)c(Cl)c2)C(NC(C)=O)c2cccc3ccccc23)cc1` (configuration not stated), the viability at 25 µM in [1] was found to be 90.1%. For the same compound, the inhibition at 25 µM was determined as 55.8% in [2] and 25% in data set [8]. Also, the values for the inhibition at 100 µM in data set [3] and in data set [9] were 78.6% and 36.4%, respectively. Moreover, the inhibition at 50 µM came out at 31.5% in [4] and 74.3% in data set [6]. Also, the viability at 50 µM in [5] turned out to be 89.3%. Besides, in data set [7], the viability at 100 µM was 87.2%.
